This note sets out measurements from patent US7468375B2 (Pfizer Inc., priority 2004, dated 2008).

One may read the IC50 as the concentration that inhibits the measured activity by half. Broadly, the EC50 is the concentration that produces a half-maximal response.

The target in experiment [1] is T1, Full-length wild type HIV-1 integrase (SF1) (Human immunodeficiency virus type 1 group M subtype B, UniProt P04585).
T1 construct: made in house; host or cells: E. coli BL21 (DE3)
The experiment in a line: Integrase strand-transfer scintillation proximity assay. It counts as biochemical. As to conditions: strand transfer, 50 min at 37° C., 246 nM integrase, 50 nM host DNA; read-out: IC50. Put shortly:
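Recombinant full-length wild-type HIV-1 integrase (aa 1-288), E. coli-expressed, tested on biotinylated pre-processed U5 LTR viral ds-DNA with CA overhang bound to streptavidin SPA beads. [3H]-thymidine-labelled host ds-DNA serves as target; strand transfer read by scintillation proximity. A 3′ di-deoxy viral DNA control checks non-specific binding.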

Experiment [2] concerns RF strain of HIV-1 in CEM-SS cells. The experiment in a line: HIV-1 cell protection assay (XTT dye reduction). The following applies: HIV-1 RF, CEM-SS cells, XTT dye reduction, six days, read-out: EC50. In kind it is cell-based. The method in brief:
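CEM-SS cells infected with HIV-1 RF (moi 0.025–0.819) or mock-infected, 2×10^4 cells/well with half-log compound dilutions for six days. Viability by XTT/PMS reduction (4 h), absorbance 450 nm, as % of uninfected untreated cells. Therapeutic index = CC50/EC50.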

Setting [3] is: Human immunodeficiency virus 1, CEM-SS, 144 h.

Each structure is given as a SMILES string. Where two headings read alike, the source gives them in different places.

With `O=C1CN(Cc2cn(Cc3ccc(F)cc3)c3cnc(C(=O)NOc4ccccc4)cc23)CCN1` [Example 104, 1-(4-Fluorobenzyl)-3-[(3-oxopiperazin-1-yl)methyl]-N-phenoxy-1H-pyrrolo[2,3-c]pyridine-5-carboxamide], in experiment [1], the IC50 was determined as 182 nM. Moreover, the EC50 in experiment [2] (setting [3]) worked out at 4.45 nM.
Taken in the same sequence, the figures for `CN(C)CCCNCc1cn(Cc2ccc(F)cc2F)c2cnc(C(=O)NO)cc12` [Example 4] were 343 nM and 85 nM.
In the same order, the values of `O=C(NO)c1cc2c(CN[C@@H](CO)c3ccccc3)cn(Cc3ccc(F)cc3F)c2cn1` [Example 59, 1-(2,4-Difluorobenzyl)-N-hydroxy-3-({[(1R)-2-hydroxy-1-phenylethyl]amino}methyl)-1H-pyrrolo[2,3-c]pyridine-5-carboxamide] are 221 nM and 18 nM.
In the same order, the values of `O=C(NO)c1ncc2c(ccn2Cc2ccc(F)cc2)c1O` [Example 42, 1-(4-Fluorobenzyl)-N,4-dihydroxy-1H-pyrrolo[2,3-c]pyridine-5-carboxamide] are 27 nM and 1 nM.
As for `CONC(=O)c1cc2c(CN3CCN(C)CC3)cn(Cc3ccc(F)cc3F)c2cn1` [Example 37, 1-(2,4-Difluorobenzyl)-N-methoxy-3-[(4-methylpiperazin-1-yl)methyl]-1H-pyrrolo[2,3-c]pyridine-5-carboxamide], the IC50 in experiment [1] is 528 nM. Moreover, the EC50 in experiment [2] (setting [3]) was 46 nM.
In the same order, the values of `CCCN(O)C(=O)c1cc2ccn(Cc3ccc(F)cc3)c2cn1` [Example 28, 1-(4-Fluorobenzyl)-N-hydroxy-N-propyl-1H-pyrrolo[2,3-c]pyridine-5-carboxamide] are 628 nM and 350 nM.
Taken in the same sequence, the figures for `O=C1CN(Cc2cn(Cc3ccc(F)cc3)c3cnc(C(=O)NOCc4ccccc4)cc23)CCN1` [Example 102, N-(Benzyloxy)-1-(4-fluorobenzyl)-3-[(3-oxopiperazin-1-yl)methyl]-1H-pyrrolo[2,3-c]pyridine-5-carboxamide] were 810 nM and 33 nM.
Taken in the same sequence, the figures for `CN(C)CCNCc1cn(Cc2ccc(F)cc2F)c2cnc(C(=O)NO)cc12` [Example 72, 1-(2,4-Difluorobenzyl)-3-({[2-(dimethylamino)ethyl]amino}methyl)-N-hydroxy-1H-pyrrolo[2,3-c]pyridine-5-carboxamide] were 658 nM and 29 nM.
As for `C[C@@H](NCc1cn(Cc2ccc(F)cc2F)c2cnc(C(=O)NO)cc12)C1CCCCC1` [Example 76, 3-({[(1R)-1-Cyclohexylethyl]amino}methyl)-1-(2,4-difluorobenzyl)-N-hydroxy-1H-pyrrolo[2,3-c]pyridine-5-carboxamide], in experiment [1], the IC50 was 402 nM. Also, in experiment [2] (setting [3]), the EC50 was 91 nM.
As to `CC(CO)NCc1cn(Cc2ccc(F)cc2F)c2cnc(C(=O)NO)cc12` (centres unmarked) [Example 53, 1-(2,4-Difluorobenzyl)-N-hydroxy-3-{[(2-hydroxy-1-methylethyl)amino]methyl}-1H-pyrrolo[2,3-c]pyridine-5-carboxamide], in experiment [1], the IC50 came out at 359 nM. In addition, the EC50 in experiment [2] (setting [3]) turned out to be 11 nM.
In the same order, the values of `O=C(NO)c1cc2c(CNC3CCS(=O)(=O)C3)cn(Cc3ccc(F)cc3F)c2cn1` (centres unmarked) [Example 12, 1-(2,4-Difluorobenzyl)-3-{[(1,1-dioxidotetrahydrothien-3-yl)amino]methyl}-N-hydroxy-1H-pyrrolo[2,3-c]pyridine-5-carboxamide] are 36 nM and 19 nM.
Regarding `CONC(=O)c1cc2c(CN3CC[C@@H]4C(=O)NC[C@@H]4C3)cn(Cc3ccc(F)cc3F)c2cn1` (racemic) [Example 17, rac 1-(2,4-Difluorobenzyl)-N-methoxy-3-{[(3aR*,7aS*)-1-oxooctahydro-5H-pyrrolo[3,4-c]pyridin-5-yl]methyl}-1H-pyrrolo[2,3-c]pyridine-5-carboxamide], the IC50 in experiment [1] worked out at 300 nM. Besides, the EC50 in experiment [2] (setting [3]) amounted to 25 nM.
Taken in the same sequence, the figures for `NC(=O)CNCc1cn(Cc2ccc(F)cc2F)c2cnc(C(=O)NO)cc12` [Example 10, 3-{[(2-Amino-2-oxoethyl)amino]methyl}-1-(2,4-difluorobenzyl)-N-hydroxy-1H-pyrrolo[2,3-c]pyridine-5-carboxamide] were 84 nM and 18 nM.
In the case of `Cc1cnc(CNCc2cn(Cc3ccc(F)cc3F)c3cnc(C(=O)NO)cc23)cn1` [Example 66, 1-(2,4-Difluorobenzyl)-N-hydroxy-3-({[(5-methylpyrazin-2-yl)methyl]amino}methyl)-1H-pyrrolo[2,3-c]pyridine-5-carboxamide], the IC50 in experiment [1] worked out at 357 nM. In addition, the EC50 in experiment [2] (setting [3]) is 11 nM.
Taken in the same sequence, the figures for `O=C(NO)c1cc2c(CNCCCN3CCCC3=O)cn(Cc3ccc(F)cc3F)c2cn1` [Example 68, 1-(2,4-Difluorobenzyl)-N-hydroxy-3-({[3-(2-oxopyrrolidin-1-yl)propyl]amino}methyl)-1H-pyrrolo[2,3-c]pyridine-5-carboxamide] were 549 nM and 100 nM.
Consider `CONC(=O)c1ncc2c(ccn2Cc2ccc(F)cc2)c1O` [Example 43, 1-(4-Fluorobenzyl)-4-hydroxy-N-methoxy-1H-pyrrolo[2,3-c]pyridine-5-carboxamide], for which the IC50 in experiment [1] is 371 nM. Besides, the EC50 in experiment [2] (setting [3]) worked out at 420 nM.
As to `CN(Cc1cccnc1)Cc1cn(Cc2ccc(F)cc2F)c2cnc(C(=O)NO)cc12` [Example 8, 1-(2,4-Difluorobenzyl)-N-hydroxy-3-{[methyl(pyridin-3-ylmethyl)amino]methyl}-1H-pyrrolo[2,3-c]pyridine-5-carboxamide], the half-inhibitory concentration (IC50) in experiment [1] turned out to be 45 nM. Besides, the EC50 in experiment [2] (setting [3]) turned out to be 52 nM.
In the same order, the values of `O=C(NO)c1cc2c(CNCc3n[nH]c4c3CCC4)cn(Cc3ccc(F)cc3F)c2cn1` [Example 99, 1-(2,4-Difluorobenzyl)-N-hydroxy-3-{[(1,4,5,6-tetrahydrocyclopenta[c]pyrazol-3-ylmethyl)amino]methyl}-1H-pyrrolo[2,3-c]pyridine-5-carboxamide] are 277 nM and 31 nM.
Taken in the same sequence, the figures for `O=C(CC(NCc1cn(Cc2ccc(F)cc2F)c2cnc(C(=O)NO)cc12)C1CC1)NC1CC1` (centres unmarked) [Example 101, 3-({[1-Cyclopropyl-3-(cyclopropylamino)-3-oxopropyl]amino}methyl)-1-(2,4-difluorobenzyl)-N-hydroxy-1H-pyrrolo[2,3-c]pyridine-5-carboxamide] were 472 nM and 73 nM.
In the same order, the values of `O=C(NO)c1cc2c(CNCCC3CCOCC3)cn(Cc3ccc(F)cc3F)c2cn1` [Example 96, 1-(2,4-Difluorobenzyl)-N-hydroxy-3-({[2-(tetrahydro-2H-pyran-4-yl)ethyl]amino}methyl)-1H-pyrrolo[2,3-c]pyridine-5-carboxamide] are 511 nM and 30 nM.
For the compound `CCN1CCCC1CNCc1cn(Cc2ccc(F)cc2F)c2cnc(C(=O)NO)cc12` (centres unmarked) [Example 45, 1-(2,4-Difluorobenzyl)-3-({[(1-ethylpyrrolidin-2-yl)methyl]amino}methyl)-N hydroxy-1H-pyrrolo[2,3-c]pyridine-5-carboxamide], the IC50 in experiment [1] came to 295 nM. For the same compound, the EC50 in experiment [2] was found to be 51 nM.
For the compound `CN(O)C(=O)c1cc2c(CN3CC[C@@H]4CNC(=O)[C@@H]4C3)cn(Cc3ccc(F)cc3F)c2cn1` (relative stereo) [Example 112], in experiment [1], the IC50 was 62 nM. The EC50 in experiment [2] (setting [3]) was determined as 597 nM.
For the compound `CN(O)C(=O)c1cc2c(COC3CCOCC3)cn(Cc3ccc(F)cc3)c2cn1` [Example 118, 1-(4-Fluorobenzyl)-N-hydroxy-N-methyl-3-[(tetrahydro-2H-pyran-4-yloxy)methyl]-1H-pyrrolo[2,3-c]pyridine-5-carboxamide], in experiment [1], the IC50 came out at 57 nM. Moreover, the EC50 in experiment [2] (setting [3]) amounted to 313 nM.
Taken in the same sequence, the figures for `CN(O)C(=O)c1cc2c(CN3CC[C@@H]4C(=O)NC[C@@H]4C3)cn(Cc3ccc(F)cc3F)c2cn1` (racemic) [Example 18, rac 1-(2,4-difluorobenzyl)-N-hydroxy-N-methyl-3-{[(3aR*,7aS*)-1-oxooctahydro-5H-pyrrolo[3,4-c]pyridin-5-yl]methyl}-1H-pyrrolo[2,3-c]pyridine-5-carboxamide] were 470 nM and 49 nM.
Taken in the same sequence, the figures for `CN1CCN(Cc2cn(Cc3ccc(F)cc3F)c3cnc(C(=O)NO)cc23)CC1` [Example 5, 1-(2,4-Difluorobenzyl)-N-hydroxy-3-[(4-methylpiperazin-1-yl)methyl]-1H pyrrolo[2,3-c]pyridine-5-carboxamide] were 153 nM and 13 nM.
Taken in the same sequence, the figures for `O=C(NO)c1cc2c(CN[C@H](CO)Cc3ccccc3)cn(Cc3ccc(F)cc3F)c2cn1` [Example 64, 3-({[(1S)-1-Benzyl-2-hydroxyethyl]amino}methyl)-1-(2,4-difluorobenzyl)-N-hydroxy-1H-pyrrolo[2,3-c]pyridine-5-carboxamide] were 328 nM and 17 nM.
For the compound `CC(O)CNCc1cn(Cc2ccc(F)cc2F)c2cnc(C(=O)NO)cc12` (centres unmarked) [Example 65, 1-(2,4-Difluorobenzyl)-N-hydroxy-3-{[(2-hydroxypropyl)amino]methyl}-1H-pyrrolo[2,3-c]pyridine-5-carboxamide], the 50% inhibitory concentration (IC50) in experiment [1] came out at 625 nM. Also, the EC50 in experiment [2] (setting [3]) was found to be 14 nM.
Regarding `O=C1CN(Cc2cn(Cc3ccc(F)cc3)c3cnc(C(=O)NO)cc23)CCN1` [Example 15, 1-(4-Fluorobenzyl)-N-hydroxy-3-[(3-oxopiperazin-1-yl)methyl]-1 pyrrolo[2,3-c]pyridine-5-carboxamide], in experiment [1], the IC50 was 41 nM. For the same compound, the EC50 in experiment [2] (setting [3]) came out at 11 nM.
